In patent US6169181A, “Compounds useful to treat retroviral infections” (Pharmacia & Upjohn Company, priority 1998, dated 2001):
Read-outs that look alike come from different tables or passages of the source.

Target: HIV-1 protease (Human immunodeficiency virus type 1 group M subtype B, UniProt P04585)
Assay: biochemical
Experimental: The HIV protease screening assay is based on fluorescently labeled substrate which can be resolved from nonlabeled cleavage product using special beads coated with streptavidin. The substrate is biotinylated at the amino terminal arginine and fluorescently labeled with fluorescein isothiocynate (FITC) at the carboxyl terminal lysine. This assay has been employed to detect novel, nonpeptidic inhibitors of HIV-1 protease. Substrate (20 μM of 0.2 μM), sample (10 μl of desired concentraion), and enzyme (10 μl of 0.1 μM) are added to a 96 well pandex plate. The assay is run in 0.1 M sodium acetate buffer at pH 5.5 in the presence of 1.0 M sodium chloride and 0.05% NP-40 with incubated in the dark for one hour at room temperature. Strepavidin coated polystyrene beads {40 μl of 0.1% (w/v)} are added and the plate is incubated in the dark for an additional half hour. The labeled cleavage product is separated from the unreacted substrate via filtration and is read on the Idexx screen machine. The data are analyzed by appropriate computer algorithms to ascertain percent inhibition values.

[1] = Table II, enzyme HIV-1, DOSE 0.123 (unit not given)
[2] = Table II, enzyme HIV-1, DOSE 0.370 (unit not given)
[3] = Table II, enzyme HIV-1, DOSE 1.100 (unit not given)
[4] = Table II, enzyme HIV-1, DOSE 3.300 (unit not given)
[5] = Table II, enzyme HIV-1, DOSE 10.000 (unit not given)
[6] = Table II, enzyme HIV-1, DOSE 30.000 (unit not given)
[7] = Table I, Dose 0.123 μM, read-out: Protease % Inhib
[8] = Table I, Dose 0.370 μM, read-out: Protease % Inhib
[9] = Table I, Dose 1.100 μM, read-out: Protease % Inhib
[10] = Table I, Dose 3.300 μM, read-out: Protease % Inhib
[11] = Table I, Dose 10.000 μM, read-out: Protease % Inhib
[12] = Table I, Dose 30.000 μM, read-out: Protease % Inhib

inhibition at 30 µM [12] [%]	Structure (SMILES)	inhibition at 0.123 µM [7] [%]	inhibition at 0.37 µM [8] [%]	inhibition at 1.1 µM [9] [%]	inhibition at 3.3 µM [10] [%]	inhibition at 10 µM [11] [%]	also measured
84.4	CCCCCC1(CCCCC)CC(O)=C(C(CC)c2cccc(NS(=O)(=O)c3ccc(C#N)cc3)c2)C(=O)O1 (stereo not drawn) [Example 64, 4-Cyano-N-[3-[1-(4-Hydroxy-2-oxo-6,6-dipentyl-5,6-dihydro-2H-pyran-3-yl)-propyl]-phenyl]-benzenesulfonamide]	27.9	50.8	75.6	80.9	82	–
85.2	CN(c1cccc(C(c2c(O)c3c(oc2=O)CCCCCC3)C2CC2)c1)S(=O)(=O)c1ccccc1 (stereo not drawn) [Example 194, N-methyl-N-[3-[cyclopropyl(5,6,7,8,9,10-hexahydro-4-hydroxy-2-oxo-2H-cycloocta[b]pyran-3-yl)methyl]phenyl]-benzenesulfonamide]	< 10	20	53.9	75.2	85.5	–
109	CCC(CCN=[N+]=[N-])c1cc(O)c(C(c2cccc(NS(=O)(=O)c3cn(C)cn3)c2)C2CC2)c(=O)o1 (stereo not drawn) [Example 109, N-(3-{[6-(3-Azido-1-ethyl-propyl)-4-hydroxy-2-oxo-2H-pyran-3-yl]-cyclopropyl-methyl}-phenyl)-1-methyl-1H-imidazole-4-sulfonamide]	105	99.3	104	101	109	–
89.2	CCCC1(CCC)CC(O)=C(C(CC)c2cccc(NS(=O)(=O)c3ccc(C#N)cn3)c2)C(=O)O1 (stereo not drawn) [Example 262]	91.8	96.6	97.1	95.4	94.2	–

The next lines start with the molecule.

Structure (SMILES)	inhibition at 30 µM [12] [%]	inhibition at 0.123 µM [7] [%]	inhibition at 0.37 µM [8] [%]	inhibition at 1.1 µM [9] [%]	inhibition at 3.3 µM [10] [%]	inhibition at 10 µM [11] [%]	also measured
CCCC1(CCc2ccccc2)CC(O)=C(C(c2cccc(NS(=O)(=O)c3ccc(C#N)cn3)c2)C2CC2)C(=O)O1 (stereo not drawn) [Example 311]	–	–	–	–	–	–	PROTEASE % INHIB. [1]: 86.51%; PROTEASE % INHIB. [2]: 91.49%; PROTEASE % INHIB. [3]: 101.8%; PROTEASE % INHIB. [4]: 96.5%; PROTEASE % INHIB. [5]: 93.77%; PROTEASE % INHIB. [6]: 77.63%
CCCC1(CCc2ccc(F)cc2)CC(O)=C(C(c2cccc(NS(=O)(=O)c3ccc(C#N)cn3)c2)C(C)(C)C)C(=O)O1 (stereo not drawn) [Example 253, N-[3-{1-(4-Hydroxy-5,6-dihydro-2-oxo-6-(2-(4-fluorophenyl)ethyl)-6-propyl-2H-pyran-3-yl)-2,2-dimethylpropyl}phenyl]-5-cyanopyridine-2-sulfonamide]	98.5	94	96.8	97.6	95.9	97	–
O=c1oc(C(CC2CC2)CC2CC2)cc(O)c1C(c1cccc(NS(=O)(=O)c2cccc3cccnc23)c1)C1CC1 (stereo not drawn) [Example 96, N-(3-{Cyclopropyl-[6-(2-cyclopropyl-1-cyclopropylmethyl-ethyl)-4-hydroxy-2-oxo-2H-pyran-3-yl]-methyl}-phenyl)-8-quinolinesulfonamide]	109	94.2	119	122	111	111	–
CCCCCC1(CCCCC)CC(O)=C(C(CC)c2cccc(NS(=O)(=O)c3cn(C)cn3)c2)C(=O)O1 (stereo not drawn) [Example 63, N-[3-[1-(4-Hydroxy-2-oxo-6,6-dipentyl-5,6-dihydro-2H-pyran-3-yl)-propyl]-phenyl]-1-methyl-1H-imidazole-4-sulfonamide]	–	–	–	–	–	–	inhibition at 0.123 µM (read-out: Protease % Inhib): 68.9%; inhibition at 0.37 µM (read-out: Protease % Inhib): 79.6%; inhibition at 1.1 µM (read-out: Protease % Inhib): 88.6%; inhibition at 3.3 µM (read-out: Protease % Inhib): 87.4%; inhibition at 10 µM (read-out: Protease % Inhib): 83.6%; inhibition at 30 µM (read-out: Protease % Inhib): 78.8%
CCC(CCOCCOC)c1cc(O)c(C(c2cccc(NS(=O)(=O)c3cn(C)cn3)c2)C2CC2)c(=O)o1 (stereo not drawn) [Example 105, N-(3-{Cyclopropyl-[6-(1-ethyl-3-{2-methoxy-ethoxy}-propyl)-4-hydroxy-2-oxo-2H-pyran-3-yl]-methyl}-phenyl)-1-methyl-1H-imidazole-4-sulfonamide]	111	101	115	107	111	111	–
N#Cc1ccc(S(=O)(=O)Nc2cccc(C(c3c(O)cc(C(CC4CC4)CC4CC4)oc3=O)C3CC3)c2)cc1 (stereo not drawn) [Example 95, 4-Cyano-N-(3-{cyclopropyl-[6-(2-cyclopropyl-1-cyclopropylmethyl-ethyl)-4-hydroxy-2-oxo-2H-pyran-3-yl]-methyl}-phenyl)-benzenesulfonamide]	113	91.2	102	106	113	110	–
CCC(CC1CCOCC1)c1cc(O)c(C(c2cccc(NS(=O)(=O)c3cn(C)cn3)c2)C2CC2)c(=O)o1 (stereo not drawn) [Example 135, N-(3-{Cyclopropyl-[6-(1-(tetrahydropyran-4-ylmethyl)-propyl)-4-hydroxy-2-oxo-2H-pyran-3-yl]-methyl}-phenyl)-1-methyl-1H-imidazole-4-sulfonamide]	–	33.2	84.5	99.1	96.9	101	inhibition at 30.9 µM (read-out: Protease % Inhib): 102%
CC[C@H](Cc1ccccc1)c1cc(O)c(C(c2cccc(NS(=O)(=O)c3ccc(C#N)cc3)c2)C2CC2)c(=O)o1 (single isomer, unassigned) [Example 149, N-(3-(R or S)-{Cyclopropyl-[6-(1-(R)-ethylphenethyl)-4-hydroxy-2-oxo-2H-pyran-3-yl]-methyl}-phenyl)-4-cyanobenzenesulfonamide]	–	–	–	–	–	–	PROTEASE % INHIB. (Table I, Dose 0.123 μM): 80.51%; PROTEASE % INHIB. (Table I, Dose 0.370 μM): 87.52%; PROTEASE % INHIB. (Table I, Dose 1.100 μM): 96.32%; PROTEASE % INHIB. (Table I, Dose 3.300 μM): 92.86%; PROTEASE % INHIB. (Table I, Dose 10.000 μM): 97.12%; PROTEASE % INHIB. (Table I, Dose 30.000 μM): 95.99%
CCCC1(CCc2ccccc2)CC(O)=C(C(CC)c2cccc(NS(=O)(=O)c3ccc(C#N)cn3)c2)C(=O)O1 (stereo not drawn) [Example 263, N-[3-{1-(4-Hydroxy-5,6-dihydro-2-oxo-6-phenethyl-6-propyl-2H-pyran-3-yl)propyl}phenyl]-5-cyanopyridine-2-sulfonamide]	–	–	–	–	–	–	inhibition at 0.123 µM (read-out: Protease % Inhib): 98.1%; inhibition at 0.37 µM (read-out: Protease % Inhib): 99%; inhibition at 1.1 µM (read-out: Protease % Inhib): 99.1%; inhibition at 3.3 µM (read-out: Protease % Inhib): 98.1%; inhibition at 10 µM (read-out: Protease % Inhib): 96.2%; inhibition at 30 µM (read-out: Protease % Inhib): 88.2%
COCCOCCCc1cc(O)c(C(c2cccc(NS(=O)(=O)c3cn(C)cn3)c2)C2CC2)c(=O)o1 (stereo not drawn) [Example 104, N-(3-{Cyclopropyl-[4-hydroxy-6-(3-{2-methoxy-ethoxy}-propyl)-2-oxo-2H-pyran-3-yl]-methyl}-phenyl)-1-methyl-1H-imidazole-4-sulfonamide]	109	< 10	61.7	81.8	93.3	96.4	–
CCC(C1=C(O)CC(CC(C)C)(CC(C)C)OC1=O)c1cccc(NS(=O)(=O)c2ccc(C#N)cn2)c1 (racemic) [Example 304, 5-Cyano-N-[3-(1-[5,6-dihydro-6,6-diisobutyl-4-hydroxy-2-oxo-2H-pyran-3-yl]propyl)phenyl]-2-pyridinesulfonamide]	–	–	–	–	–	–	PROTEASE % INHIB. [1]: 92.01%; PROTEASE % INHIB. [2]: 93.28%; PROTEASE % INHIB. [3]: 96.47%; PROTEASE % INHIB. [4]: 100.47%; PROTEASE % INHIB. [5]: 107.61%; PROTEASE % INHIB. [6]: 79.68%
